The compounds below were run against LC3B (Homo sapiens, UniProt Q9GZQ8) (assay: Fluorescence Polarization (FP) Assay: displacement of FITC-labeled peptide from GST-LC3B). Conditions: Fluorescence Polarization assay; GST-LC3B 180 nM, FITC-labeled peptide 18 nM, 25° C.; read-out: IC50.
Format: binding
Experimental: The compounds of the present invention for regulating the autophagy-related protein LC3B were tested by Fluorescence Polarization (FP) Assay.
Fluorescence Polarization (FP) Assay Test

SMILES	IC50 [µM]
O=C1CC(c2ccc(-c3ccncc3)s2)CC(=O)C1=CNCCN1CCN(CCO)CC1 (centres unmarked) [Compound 72, 2-(((2-(4-(2-hydroxyethyl)piperazin-1-yl)ethyl)amino)methylene)-5-(5-(pyridin-4-yl)thiophen-2-yl)cyclohexane-1,3-dione]	< 3
O=C1CC(c2ccc(-c3ccncc3)cc2)CC(=O)C1=CNCCN1CCN(CCO)CC1 (centres unmarked) [Compound 73, 2-(((2-(4-(2-hydroxyethyl)piperazin-1-yl)ethyl)amino)methylene)-5-(4-(pyridin-4-yl)phenyl) cyclohexane-1,3-dione]	< 3
CN(C)C=Nc1nc2c(C3CC(=O)C(=CNCCN4CCN(CCO)CC4)C(=O)C3)cccc2s1 (centres unmarked) [Compound 74, N′-(4-(4-(((2-(4-(2-hydroxyethyl)piperazin-1-yl)ethyl)amino)methylene)-3,5-dioxocyclohexyl)benzo[d]thiazol-2-yl)-N,N-dimethyl-formimidamide]	< 3
O=C1CC(c2cccc(Oc3ccncc3)c2)CC(=O)C1=CNCCN1CCN(CCO)CC1 (centres unmarked) [Compound 75, 2-(((2-(4-(2-hydroxyethyl)piperazin-1-yl)ethyl)amino)methylene)-5-(3-(pyridin-4-yloxy)phenyl) cyclohexane-1,3-dione]	3 to 15
CCOc1ncnc2c1ncn2-c1ccc(C2CC(=O)C(=CNCCN3CCN(CCO)CC3)C(=O)C2)cc1 (centres unmarked) [Compound 76, 5-(4-(6-ethoxy-9H-purin-9-yl)phenyl)-2-(((2-(4-(2-hydroxyethyl)piperazin-1-yl)ethyl)amino)methylene) cyclohexane-1,3-dione]	15 to 100
O=C1CC(c2ccc(C(=O)N3CCOCC3)cc2)CC(=O)C1=CNCCN1CCN(CCO)CC1 (centres unmarked) [Compound 77, 2-(((2-(4-(2-hydroxyethyl)piperazin-1-yl)ethyl)amino)methylene)-5-(4-(morpholine-4-carbonyl)phenyl) cyclohexane-1,3-dione]	15 to 100
O=C1CC([C@]23C[C@H]4C[C@H](C[C@H](C4)C2)C3)CC(=O)C1=CNCCN1CCN(CCO)CC1 (some centres unmarked) [Compound 78]	15 to 100
CN1CCN(c2ccc(C3CC(=O)C(=CNCCN4CCN(CCO)CC4)C(=O)C3)cn2)CC1 (centres unmarked) [Compound 79, 2-(((2-(4-(2-hydroxyethyl)piperazin-1-yl)ethyl)amino)methylene)-5-(6-(4-methylpiperazin-1-yl)pyridin-3-yl) cyclohexane-1,3-dione]	100 to 1000
COCCOc1cc(C2CC(=O)C(=CNCCN3CCN(CCO)CC3)C(=O)C2)ccc1OC (centres unmarked) [Compound 80, 2-(((2-(4-(2-hydroxyethyl)piperazin-1-yl)ethyl)amino)methylene)-5-(4-methoxy-3-(2-methoxyethoxy)phenyl) cyclohexane-1,3-dione]	15 to 100
COCCN1c2ccccc2Sc2cc(C3CC(=O)C(=CNCCN4CCN(CCO)CC4)C(=O)C3)ccc21 (centres unmarked) [Compound 84, 2-(((2-(4-(2-hydroxyethyl)piperazin-1-yl)ethyl)amino)methylene)-5-(10-(2-methoxyethyl)-10H-phenothiazin-3-yl)cyclohexane-1,3-dione]	15 to 100
O=C1CC2(CCC2)CC(=O)C1=CNCCN1CCN(CCO)CC1 [Compound 86, 7-(((2-(4-(2-hydroxyethyl)piperazin-1-yl)ethyl)amino)methylene)-spiro[3.5]nonane-6,8-dione]	15 to 100
O=C1CC(c2ccc(OCCN3CCOCC3)nc2)CC(=O)C1=CNCCN1CCN(CCO)CC1 (centres unmarked) [Compound 89, 2-(((2-(4-(2-hydroxyethyl)piperazin-1-yl)ethyl)amino)methylene)-5-(6-(2-morpholinoethoxy)pyridin-3-yl)cyclohexane-1,3-dione]	100 to 1000
O=C1CC(c2ccc(S(=O)(=O)N3CCOCC3)cc2)CC(=O)C1=CNCCN1CCN(CCO)CC1 (centres unmarked) [Compound 92]	15 to 100
O=C1CC(C(F)(F)F)CC(=O)C1=CNCCN1CCN(CCO)CC1 (centres unmarked) [Compound 94, 2-(((2-(4-(2-hydroxyethyl)piperazin-1-yl)ethyl)amino)methylene)-5-(trifluoromethyl) cyclohexane-1,3-dione]	15 to 100
O=C1CC(c2ccccc2)OC(=O)C1=CNCCN1CCN(CCO)CC1 (centres unmarked) [Compound 95, 3-(((2-(4-(2-hydroxyethyl)piperazin-1-yl)ethyl)amino)methylene)-6-phenyldihydro-2H-pyran-2,4(3H)-dione]	15 to 100
O=C1CC(c2ccccc2)NC(=O)C1=CNCCN1CCN(CCO)CC1 (centres unmarked) [Compound 96, 3-(((2-(4-(2-hydroxyethyl)piperazin-1-yl)ethyl)amino)methylene)-6-phenylpiperidine-2,4-dione]	100 to 1000
O=C1CN(c2ccccc2)CC(=O)C1=CNCCN1CCN(CCO)CC1 [Compound 97, 4-(((2-(4-(2-hydroxyethyl)piperazin-1-yl)ethyl)amino)methylene)-1-phenylpiperidine-3,5-dione]	15 to 100

Results, then the compound that gave them:

IC50 [µM]	SMILES
15 to 100	O=C1CC(c2ccc(-c3nccs3)cc2)CC(=O)C1=CNCCN1CCN(CCO)CC1 (centres unmarked) [Compound 81, 2-(((2-(4-(2-hydroxyethyl)piperazin-1-yl)ethyl)amino)methylene)-5-(4-(thiazol-2-yl)phenyl) cyclohexane-1,3-dione]
15 to 100	O=C1CC(c2ccc(-n3ccnc3)nc2)CC(=O)C1=CNCCN1CCN(CCO)CC1 (centres unmarked) [Compound 82, 5-(6-(1H-imidazol-1-yl)pyridin-3-yl)-2-(((2-(4-(2-hydroxyethyl)piperazin-1-yl)ethyl)amino)methylene) cyclohexane-1,3-dione]
15 to 100	O=C1CC(c2ccc(Nc3nccs3)nc2)CC(=O)C1=CNCCN1CCN(CCO)CC1 (centres unmarked) [Compound 83, 2-(((2-(4-(2-hydroxyethyl)piperazin-1-yl)ethyl)amino)methylene)-5-(6-(thiazol-2-ylamino)pyridin-3-yl)cyclohexane-1,3-dione]
15 to 100	Nc1nc2c(C3CC(=O)C(=CNCCN4CCN(CCO)CC4)C(=O)C3)cccc2s1 (centres unmarked) [Compound 85, 5-(2-aminobenzo[d]thiazol-4-yl)-2-(((2-(4-(2-hydroxyethyl)piperazin-1-yl)ethyl)amino)methylene)cyclohexane-1,3-dione]
15 to 100	O=C1CC(c2ccc(-n3ccnc3)cc2)CC(=O)C1=CNCCN1CCN(CCO)CC1 (centres unmarked) [Compound 87, 5-(4-(1H-imidazol-1-yl)phenyl)-2-(((2-(4-(2-hydroxyethyl)piperazin-1-yl)ethyl)amino)methylene) cyclohexane-1,3-dione]
3 to 15	O=C1CC(c2cnc3ccccc3n2)CC(=O)C1=CNCCN1CCN(CCO)CC1 (centres unmarked) [Compound 88, 2-(((2-(4-(2-hydroxyethyl)piperazin-1-yl)ethyl)amino)methylene)-5-(quinoxalin-2-yl)cyclohexane-1,3-dione]
100 to 1000	O=C1CC(c2cncnc2)CC(=O)C1=CNCCN1CCN(CCO)CC1 (centres unmarked) [Compound 90, 2-(((2-(4-(2-hydroxyethyl)piperazin-1-yl)ethyl)amino)methylene)-5-(pyrimidin-5-yl)cyclohexane-1,3-dione]
15 to 100	O=C1CC(c2cnc(N3CCOCC3)nc2)CC(=O)C1=CNCCN1CCN(CCO)CC1 (centres unmarked) [Compound 91, 2-(((2-(4-(2-hydroxyethyl)piperazin-1-yl)ethyl)amino)methylene)-5-(2-morpholino-pyrimidin-5-yl)cyclohexane-1,3-dione]
3 to 15	O=C1CC(c2cccc3[nH]ncc23)CC(=O)C1=CNCCN1CCN(CCO)CC1 (centres unmarked) [Compound 93, 2-(((2-(4-(2-hydroxyethyl)piperazin-1-yl)ethyl)amino)methylene)-5-(1H-indazol-4-yl)cyclohexane-1,3-dione]

From patent US11319303B2 (WIGEN BIOMEDICINE TECHNOLOGY (SHANGHAI) CO., LTD., priority 2017, dated 2022)
